Data on three molecules can be found in PMC4177916, “Characterization of the Sterol and Phosphatidylinositol 4-Phosphate Binding Properties of Golgi-Associated OSBP-Related Protein 9 (ORP9)” (PLoS ONE, 2014).

What all share (assay type): binding
For assay [1], the target named is T1, ORP9L (Homo sapiens, UniProt Q96SU4).
T1 construct: gene OSBPL9; full-length long variant, C-terminal V5-His tag (stated for the HH/AA mutant)
T1 sequence (Q96SU4 2-736): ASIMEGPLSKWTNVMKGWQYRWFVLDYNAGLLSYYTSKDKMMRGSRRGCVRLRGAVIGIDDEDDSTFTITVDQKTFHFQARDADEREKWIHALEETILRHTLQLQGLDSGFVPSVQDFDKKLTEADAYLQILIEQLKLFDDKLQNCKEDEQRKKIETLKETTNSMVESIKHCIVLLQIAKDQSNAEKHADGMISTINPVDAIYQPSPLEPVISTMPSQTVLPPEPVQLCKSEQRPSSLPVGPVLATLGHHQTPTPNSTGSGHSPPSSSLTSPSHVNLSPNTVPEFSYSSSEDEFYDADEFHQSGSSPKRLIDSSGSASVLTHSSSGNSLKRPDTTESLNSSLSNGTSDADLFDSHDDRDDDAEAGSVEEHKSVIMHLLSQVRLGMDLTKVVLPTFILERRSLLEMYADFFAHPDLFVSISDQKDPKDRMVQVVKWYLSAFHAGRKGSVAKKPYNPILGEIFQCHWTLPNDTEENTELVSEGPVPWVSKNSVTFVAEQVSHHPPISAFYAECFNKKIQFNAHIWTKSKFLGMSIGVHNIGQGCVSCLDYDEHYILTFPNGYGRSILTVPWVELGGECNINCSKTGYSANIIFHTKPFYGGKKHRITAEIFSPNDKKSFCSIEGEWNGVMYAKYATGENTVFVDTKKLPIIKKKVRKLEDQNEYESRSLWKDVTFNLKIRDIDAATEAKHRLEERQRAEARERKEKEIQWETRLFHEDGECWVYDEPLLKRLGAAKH
Description: […]PI-4P extraction from liposomes, sedimentation. The settings on record: pH 7.4, 25 °C, 20 min; 0.1 mM liposomes with 0.5 mol% PI-4P; labelled compound.

Another assay has as its target T2, ORP9S (Homo sapiens, UniProt Q96SU4).
T2 construct: gene OSBPL9; short variant lacking N-terminal PH domain, His-tagged
T2 sequence (Q96SU4 100-736 limits assumed): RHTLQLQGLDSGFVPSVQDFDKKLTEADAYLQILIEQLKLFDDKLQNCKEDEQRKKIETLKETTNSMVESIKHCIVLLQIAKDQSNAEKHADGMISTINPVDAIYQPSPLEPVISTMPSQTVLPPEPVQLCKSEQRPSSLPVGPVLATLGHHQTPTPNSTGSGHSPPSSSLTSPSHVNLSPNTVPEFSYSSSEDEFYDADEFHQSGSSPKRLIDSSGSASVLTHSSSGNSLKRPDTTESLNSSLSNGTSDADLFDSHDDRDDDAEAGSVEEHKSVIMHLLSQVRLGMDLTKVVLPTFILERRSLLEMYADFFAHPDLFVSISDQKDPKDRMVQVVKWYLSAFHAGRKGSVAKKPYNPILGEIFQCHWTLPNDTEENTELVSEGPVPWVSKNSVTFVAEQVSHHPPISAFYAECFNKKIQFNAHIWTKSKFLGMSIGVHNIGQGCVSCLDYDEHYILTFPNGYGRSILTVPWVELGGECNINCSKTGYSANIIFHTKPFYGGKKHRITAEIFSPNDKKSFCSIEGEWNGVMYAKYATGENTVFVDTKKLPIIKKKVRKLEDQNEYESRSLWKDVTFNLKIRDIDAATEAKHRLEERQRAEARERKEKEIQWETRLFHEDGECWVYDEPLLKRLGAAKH
Described as above. The settings on record: pH 7.4, 25 °C, 20 min; 0.1 mM liposomes with 0.5 mol% PI-4P; labelled compound.

Assay [2] deals with T3, ORP9L (Homo sapiens, UniProt Q96SU4, H501A/H502A, form not given).
T3 construct: gene OSBPL9; full-length long variant, C-terminal V5-His tag (stated for the HH/AA mutant)
T3 sequence (Q96SU4 2-736 H501A/H502A): T1 sequence (Q96SU4 2-736) with H500A, H501A
The assay is described as above. The settings on record: 100 pmol protein; pH 7.4, 25 °C, 20 min; labelled compound.

Assay [3] deals with T1, ORP9L. As to the kind of experiment: inhibition of CTL extraction from liposomes (FRET). The settings on record: equimolar cholesterol and CTL (2.5 mol% each); pH 7.4, 30 °C.
Another assay concerns the target T4, Osh6 (Saccharomyces cerevisiae, UniProt Q02201).
T4 construct: hexahistidine-SUMO3-tagged, expressed in bacteria
T4 sequence (Q02201 1-448): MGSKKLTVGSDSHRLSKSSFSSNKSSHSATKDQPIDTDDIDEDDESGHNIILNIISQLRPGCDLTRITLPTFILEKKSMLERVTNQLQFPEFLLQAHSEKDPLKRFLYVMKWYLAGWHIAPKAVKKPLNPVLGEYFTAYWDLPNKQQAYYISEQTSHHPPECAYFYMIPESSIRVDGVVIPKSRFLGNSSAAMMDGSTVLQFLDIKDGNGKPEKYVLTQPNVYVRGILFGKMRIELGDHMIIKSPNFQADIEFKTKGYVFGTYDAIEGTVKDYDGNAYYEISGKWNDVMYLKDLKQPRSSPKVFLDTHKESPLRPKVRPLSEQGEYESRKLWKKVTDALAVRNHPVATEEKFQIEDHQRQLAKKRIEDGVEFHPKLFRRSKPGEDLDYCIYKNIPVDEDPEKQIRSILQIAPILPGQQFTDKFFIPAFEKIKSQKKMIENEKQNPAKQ
Description: [3H]PS extraction from liposomes, sedimentation. The following applies: 100 pmol protein; pH 7.4, 25 °C, 20 min; labelled compound.

Changes are numbered by the printed parent chain. Where only a bound is given, the exact number is not on record here.

On to PI-4P, for which the “% maximal extraction” value on ORP9L [1] worked out at 9%. Besides, the “% extraction” value at ORP9S is reported as 14%. For the same molecule, at ORP9L [2], the “% reduction of extraction versus wild type” value is listed as more than 75%. As to `CC(C)CCC[C@@H](C)[C@H]1CC[C@H]2[C@@H]3CC=C4C[C@@H](O)CC[C@]4(C)[C@H]3CC[C@]12C` [cholesterol], the “% inhibition of CTL extraction” value on ORP9L [3] came out at 50%.

Turning to phosphatidylserine, the “% extraction” value on Osh6 is reported as ~ 2%.
